Data from the supplement of paper PMC3493320.

Test system: NCI-H295R
Experiment: IC50 (antiproliferative, ATP content)
Details: 48 h
Method in brief: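 Adrenocortical carcinoma cells (1500 per well) were seeded in serum-free ITS-supplemented DMEM in 1536-well plates and cultured overnight. Library compounds were then pin-transferred at 8 final concentrations from 0.6 nM to 46 µM, and plates were kept 48 h at 37 °C, 5% CO2. ATP was read as CellTiter-Glo luminescence after 20 min at room temperature and normalised to vehicle (0%) and positive control (100% inhibition). IC50 came from four-parameter logistic fits; compounds with no concentration response were recorded as above the top dose.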

SMILES	IC50 [µM]
CC(C)(CO)C(O)C(=O)NCCC(=O)NCCSSCCNC(=O)CCNC(=O)C(O)C(C)(C)CO (configuration not stated)	> 46
CCNCC.O=S(=O)(O)c1cc(O)ccc1O	> 46
O=C([C@H]3N[C@H]([C@](OCC)=O)CCC2=CC=CC=C2)N(CC(O)=O)C[C@H](SC3)[C@@]1=CC=CS1.Cl	> 46
CC(C)NCC(O)COc1cccc2[nH]ccc12 (configuration not stated)	> 46
CN1c2ccccc2C(NCCCCCCC(=O)[O-])c2ccc(Cl)cc2S1(=O)=O.[Na+] (configuration not stated)	> 46
CCN(CC)C(=S)[S-].[Na+]	> 46
IC(I)I	> 46
CCOP(=O)(OCC)OC(=CCl)c1ccc(Cl)cc1Cl	> 46
NC/C=C/C(=O)O	> 46
NC(=S)NS(=O)(=O)c1ccc(N)cc1	> 46
O=C(Oc1ccccc1C(=O)O)c1ccccc1O	> 46
CCn1cc(C(=O)O)c(=O)c2cc(F)c(N3CCNC(C)C3)c(F)c21.Cl (configuration not stated)	> 46
CCC1(CC)C(=O)NC(=O)N(C)C1=O	> 46
COC(c1ccccc1)(c1ccccc1)[C@H](Oc1nc(C)cc(C)n1)C(=O)O	> 46
Nc1nc(=O)c2ncn(CCC(CO)CO)c2[nH]1	> 46
COc1cc2c3cc1Oc1cc(ccc1O)C[C@@H]1c4c(cc(OC)c(O)c4Oc4ccc(cc4)C[C@@H]3N(C)CC2)CC[N+]1(C)C.Cl.[Cl-]	> 46
COc1cc(O)cc(O)c1	> 46
CC(C)(Sc1cc(C(C)(C)C)c(O)c(C(C)(C)C)c1)Sc1cc(C(C)(C)C)c(O)c(C(C)(C)C)c1	> 46
O=C(O)COC(=O)Cc1ccccc1Nc1c(Cl)cccc1Cl	> 46
CC(=O)Nc1ccc(OC(=O)c2ccccc2OC(C)=O)cc1	> 46
O=C(NC(O)C(Cl)(Cl)Cl)NC(O)C(Cl)(Cl)Cl (configuration not stated)	> 46
OS(C1=C(C(C)C)C=C3C([C@@]2(C)CCC[C@]([C@@](O)=O)(C)[C@@]([H])2CC3)=C1)(=O)=O	> 46
COc1ccc2c3c1O[C@H]1C[C@@H](O)C=C[C@@]31CCN(C)C2	> 46
Cc1ncc(CO)c(CN)c1O.Cl.Cl	> 46
CC(=O)O.CNC(=N)NCCC[C@H](N)C(=O)O	> 46
CC(C)CN(C[C@@H](OP(=O)([O-])[O-])[C@H](Cc1ccccc1)NC(=O)O[C@H]1CCOC1)S(=O)(=O)c1ccc(N)cc1.[Ca+2]	> 46

SMILES	IC50 [µM]
CC(C(=O)O)c1ccc2c(c1)Cc1cccnc1O2 (configuration not stated)	> 46
CN(C)[C@@H]1C(O)=C(C(N)=O)C(=O)[C@@]2(O)C(O)=C3C(=O)c4c(O)cccc4[C@@](C)(O)[C@H]3[C@H](O)[C@@H]12.Cl	> 46
CC(=O)NC(Cc1ccccc1)C(=O)O (configuration not stated)	> 46
O[C@H]1[C@H](O)[C@@H](O)[C@H](O)[C@@H](O)[C@H]1O	> 46
CCN(CCO)CCCC(C)Nc1ccnc2cc(Cl)ccc12.O=S(=O)(O)O (configuration not stated)	> 46
O=[C@](O)[C@@H]1[C@@H](CC(O)=O)[C@@H]([C@](C)=C)CN1	> 46
CCCC(O)C(CC)CO (configuration not stated)	> 46
CN(C)C(=O)Nc1ccc(Cl)c(Cl)c1	> 46
C[C@@H]1CN([C@H]2CC[C@](C#N)(c3ccc(F)cc3)CC2)CC[C@]1(C(=O)O)c1ccccc1.Cl	> 46
NCCCC[C@H](N)C(=O)O	> 46
Cc1cc(C(=O)NNCc2ccccc2)no1	> 46
CN1C(=O)C(=NNC(N)=S)c2ccccc21	> 46
CCCC(C)C1(CC)C(=O)N=C(O)NC1=O (configuration not stated)	> 46
NC(=O)NS(=O)(=O)c1ccc(N)cc1	> 46
CCC1(c2ccccc2)C(=O)N(COC)C(=O)N(COC)C1=O	> 46
Cc1nnc2n1-c1ccc(Cl)cc1C(c1ccccc1)=NC2	> 46
COc1ccccc1N1CCN(CC(O)COc2cccc3ccccc23)CC1 (configuration not stated)	> 46
CCC(=O)c1c(O)cc(O)cc1O	> 46
COc1cc(C(=O)N2CCCCCCC2)cc(OC)c1OC	> 46
O=C(NCNC(=O)NC1C(=O)NC(=O)N1CO)NC1C(=O)NC(=O)N1CO (configuration not stated)	> 46
CC(=C(CCO)SSC(CCO)=C(C)N(C=O)Cc1cnc(C)nc1N)N(C=O)Cc1cnc(C)nc1N	> 46
CCN(CC)CCOc1ccccc1OC	> 46
Oc1ccc(/C=C/c2cc(O)cc(O)c2)cc1	> 46
N[C@@H](C\C1=C\N=C/N1)C(O)=O.Cl	> 46
COCCc1ccc(OCC(O)CNC(C)C)cc1.COCCc1ccc(OCC(O)CNC(C)C)cc1.O=C(O)[C@H](O)[C@@H](O)C(=O)O (configuration not stated)	> 46
CCN1CCC[C@H]1CNC(=O)c1c(O)c(Cl)cc(Cl)c1OC	> 46

SMILES	IC50 [µM]
O=C3N1/C(=C(\CS[C@@H]1[C@@H]3NC(=O)Cc2cccs2)C[n+]4ccccc4)C([O-])=O	> 46
Cn1c(=O)c2c(ncn2C)n(C)c1=O.O=C(O)CC(O)(CC(=O)O)C(=O)O	> 46
C[C@]12CCC(=O)C=C1C=C[C@@H]1[C@@H]2CC[C@@]2(C)[C@H]1CC[C@@]2(O)CCC(=O)[O-].[K+]	> 46
Cc1cnc(C(=O)NCCc2ccc(S(=O)(=O)NC(=O)NC3CCCCC3)cc2)cn1	> 46
CCCNC(=O)NS(=O)(=O)c1ccc(Cl)cc1	> 46
CC1(C)S[C@@H]2[C@H](/N=C/N3CCCCCC3)C(=O)N2[C@H]1C(=O)O	> 46
CC1=C(/C=C/C(C)=C/C=C/C(C)=C/C(=O)O)C(C)(C)CCC1	> 46
O=C(O)c1ccccc1-c1ccc(C(F)(F)F)cc1	> 46
FC(F)(F)c1ccccc1-n1ccnc1	> 46
COc1ccc2c(c1)c1c3n2CCN(C)C3=NCC1	> 46
CC(C)(C)NCC(O)c1cc(O)cc(O)c1.CC(C)(C)NCC(O)c1cc(O)cc(O)c1.O=S(=O)(O)O (configuration not stated)	> 46
CCS(=O)(=O)C(C)(C)S(=O)(=O)CC	> 46
CCOC(=O)/C=C(C)/C=C/C[C@@H](C)CCCC(C)C	> 46
COc1cc2c(cc1OC)[C@@H](Cc1cc(OC)c(OC)c(OC)c1)[N+](C)(CCCOC(=O)CC/C=C/CCC(=O)OCCC[N+]1(C)CCc3cc(OC)c(OC)cc3[C@H]1Cc1cc(OC)c(OC)c(OC)c1)CC2.[Cl-].[Cl-] (some centres not stated)	> 46
c1cnc(N2CCN(Cc3ccc4c(c3)OCO4)CC2)nc1	> 46
CCOC(=O)c1ncn2c1CN(C)C(=O)c1cc(F)ccc1-2	> 46
COc1ccc(O)cc1	> 46
[H][C@]1(CC3)[C@]([H])4[C@]([C@@H]([C@@](C)=O)CC4)(C)CC[C@@]([H])1[C@]2(C)[C@]3([H])C[C@H](O)CC2	> 46
CC1COc2c(N3CCN(C)CC3)c(F)cc3c(=O)c(C(=O)O)cn1c23 (configuration not stated)	> 46
COc1ccc(CCN(C)CCCC(C#N)(c2ccc(OC)c(OC)c2)C(C)C)cc1OC (configuration not stated)	> 46
CN(C)CCc1c[nH]c2ccc(CS(=O)(=O)N3CCCC3)cc12	> 46
CC(C)=CCC1C(=O)N(c2ccccc2)N(c2ccccc2)C1=O	> 46
Nc1ccc([As](=O)(O)O)cc1	> 46
C[N+](C)(C)CC(=O)O.[Cl-]	> 46
CCC(=O)O[C@]1(C(=O)CCl)[C@@H](C)C[C@H]2[C@@H]3CCC4=CC(=O)C=C[C@]4(C)[C@@]3(F)[C@@H](O)C[C@@]21C	> 46
CC(=O)Oc1c(C)c(C)c2c(c1C)CCC(C)(CCCC(C)CCCC(C)CCCC(C)C)O2 (configuration not stated)	> 46

SMILES	IC50 [µM]
CC(C)(Oc1ccc(C2CC2(Cl)Cl)cc1)C(=O)O (configuration not stated)	> 46
O.O.O.O.O.O.O=P([O-])([O-])OP(=O)([O-])OP(=O)([O-])[O-].[Na+].[Na+].[Na+].[Na+].[Na+]	> 46
O=[C@](O)[C@@]3(C)[C@@]1([H])[C@@](CCC3)(C)[C@]2([H])C(C=[C@@]([C@@H](C)C)CC2)=CC1	> 46
CCCN(CCC)C(=O)C(CCC(=O)O)NC(=O)c1ccccc1 (configuration not stated)	> 46
Cc1cccc(N(C)C(=S)Oc2ccc3ccccc3c2)c1	> 46
COc1ccc(C(=O)N2CCCC2=O)cc1	> 46
COc1cc2c(cc1OC)C(=O)C(CC1CCN(Cc3ccccc3)CC1)C2.Cl (configuration not stated)	> 46
Cl.O=C(c2cn(C)c1ccccc12)[C@H]3CC=4N\C=N/C=4CC3	> 46
O=S(=O)([O-])O.[Na+]	> 46
CC(=O)N[C@H]1C(O)O[C@H](CO)[C@@H](O)[C@@H]1O (some centres not stated)	> 46
NCCC[C@H](N)CC(=O)N[C@H]1CNC(=O)[C@H]([C@H]2C[C@H](O)N=C(N)N2)NC(=O)/C(=C/NC(N)=O)NC(=O)[C@H](CO)NC(=O)[C@H](CO)NC1=O.O=S(=O)(O)O	> 46
C[C@]41/C=C\C(=O)\C=C4\C(=C)C[C@H]2[C@@H]3CCC(=O)[C@@]3(C)CC[C@H]12	> 46
CCCCCC(N)=O	> 46
CN1CCc2c(c3ccccc3n2Cc2ccccc2)C1.CN1CCc2c(c3ccccc3n2Cc2ccccc2)C1.O=S(=O)(O)c1cccc2c(S(=O)(=O)O)cccc12	> 46
O=c1[nH]c2cc(C(F)(F)F)c(N3CCOCC3)cc2n(CP(=O)(O)O)c1=O	> 46
Clc1ccccc1-c1nc(-c2ccncc2)no1	> 46
O=S([C@](CN1C=CN=N1)(C)[C@H]([C@]([O-])=O)N2C3=O)([C@@]([H])2C3)=O.[Na+]	> 46
Cc1cc(C)cc(OCC2CNC(=O)O2)c1 (configuration not stated)	> 46
Cc1cccc(C(=O)O)c1O	> 46
CC/C=C\C/C=C\C/C=C\C/C=C\C/C=C\CCCC(=O)O	> 46
CCCCN(CCCC)CCCOC(=O)c1ccc(N)cc1	> 46
CC1CCC(C(C)C)C(OC(=O)c2ccccc2O)C1 (configuration not stated)	> 46
O=C1C[C@@H]([C@](N[C@@H](CC3=CNC=N3)C(N2[C@]([H])(C(N)=O)CCC2)=O)=O)NC(N1C)=O	> 46
C[C@@H]1CCC[C@H](C)N1.Cl	> 46
